Results: patent publication US20230121313A1 (priority 2019, published 2023)

Tested on: patients with treatment-resistant depression (TRD)
Test: Adverse events, phase 2 dose-response study in TRD
Assay type: in vivo, human
Description: Adverse events were monitored throughout the study. Other safety assessments (i.e., laboratory tests, vital signs, physical examination) were performed at pre-specified time points. Vital signs, the Clinician Administered Dissociative States Scale (CADSS; Bremner, “Measurement of dissociative states with the clinician-administered dissociative states scale (CADSS)”, J. Traumatic Stress, 1998, 11(1):125-136), and the 4-item positive symptom subscale from the Brief Psychiatric Rating Scale (BPRS; Overall, “The Brief Psychiatric Rating Scale. Psychological Reports”, 1962, 10:799-812) were assessed pre-dose, at 40 minutes, and 2 hours post-dose.
Safety data were analyzed in Period 1, Period 2, double-blind, and open-label data sets, for all subjects receiving at least 1 dose of study medication.

[1] = double-blind, esketamine 84 mg, N = 17
[2] = double-blind, esketamine Total, N = 56

CN[C@]1(c2ccccc2Cl)CCCCC1=O [esketamine, (S)-2-(2-chlorophenyl)-2-(methylamino)cyclohexanone]
Feeling abnormal, % of participants [1]: (6) % | Feeling abnormal, number of participants [1]: 1 | Headache, % of participants [1]: (18) % | Headache, number of participants [1]: 3 | Hypersomnia, number of participants [1]: 0 | Hypertension, % of participants [1]: (6) % | Hypertension, number of participants [1]: 1 | Hypoesthesia oral, % of participants [1]: (12) % | Hypoesthesia oral, number of participants [1]: 2 | Insomnia, number of participants [1]: 0 | Nasal discomfort, % of participants [1]: (6) % | Nasal discomfort, number of participants [1]: 1 | Nausea, % of participants [1]: (24) % | Nausea, number of participants [1]: 4 | Oropharyngeal pain, % of participants [1]: (12) % | Oropharyngeal pain, number of participants [1]: 2 | Polyuria, number of participants [1]: 0 | Sedation, % of participants [1]: (6) % | Sedation, number of participants [1]: 1 | Throat irritation, % of participants [1]: (12) % | Throat irritation, number of participants [1]: 2 | Total with events, % of participants [1]: (88) % | Total with events, number of participants [1]: 15 | Tunnel vision, % of participants [1]: (12) % | Tunnel vision, number of participants [1]: 2 | Vertigo, % of participants [1]: (6) % | Vertigo, number of participants [1]: 1 | Vision blurred, % of participants [1]: (12) % | Vision blurred, number of participants [1]: 2 | Dissociation, % of participants [2]: (20) % | Dissociation, number of participants [2]: 11 | Dissociative disorder, % of participants [2]: (13) % | Dissociative disorder, number of participants [2]: 7 | Dizziness, % of participants [2]: (36) % | Dizziness, number of participants [2]: 20 | Dysgeusia, % of participants [2]: (18) % | Dysgeusia, number of participants [2]: 10 | Feeling abnormal, % of participants [2]: (7) % | Feeling abnormal, number of participants [2]: 4 | Headache, % of participants [2]: (21) % | Headache, number of participants [2]: 12 | Hypersomnia, % of participants [2]: (4) % | Hypersomnia, number of participants [2]: 2 | Hypertension, % of participants [2]: (5) % | Hypertension, number of participants [2]: 3 | Hypoesthesia oral, % of participants [2]: (13) % | Hypoesthesia oral, number of participants [2]: 7 | Insomnia, % of participants [2]: (4) % | Insomnia, number of participants [2]: 2 | Nasal discomfort, % of participants [2]: (5) % | Nasal discomfort, number of participants [2]: 3 | Nausea, % of participants [2]: (18) % | Nausea, number of participants [2]: 10 | Oropharyngeal pain, % of participants [2]: (5) % | Oropharyngeal pain, number of participants [2]: 3 | Polyuria, % of participants [2]: (4) % | Polyuria, number of participants [2]: 2 | Sedation, % of participants [2]: (7) % | Sedation, number of participants [2]: 4 | Throat irritation, % of participants [2]: (5) % | Throat irritation, number of participants [2]: 3 | Total with events, % of participants [2]: (75) % | Total with events, number of participants [2]: 42 | Tunnel vision, % of participants [2]: (4) % | Tunnel vision, number of participants [2]: 2 | Vertigo, % of participants [2]: (7) % | Vertigo, number of participants [2]: 4 | Vision blurred, % of participants [2]: (4) % | Vision blurred, number of participants [2]: 2 | Participants with adverse events leading to discontinuation of study drug (phase 2, double-blind phase): 5% | Adverse event dizziness, % of participants (phase 2, open-label phase): 38.6% | Adverse event dysgeusia, % of participants (phase 2, open-label phase): 22.8% | Adverse event headache, % of participants (phase 2, open-label phase): 14.0% | Adverse event nausea, % of participants (phase 2, open-label phase): 15.8% | Adverse event sedation, % of participants (phase 2, open-label phase): 10.5% | Participants reporting transient dissociative symptoms (phase 2, open-label phase): 24.6% | Participants with adverse events leading to discontinuation of study drug (phase 2, open-label phase): 2%
